From patent US4546176A, “7-Carboxymethoxyphenylacetamido-3-cephem derivatives and antibacterial preparations containing the same” (Eisai Co., Ltd., priority 1982, dated 1985) come the findings set out here.

A word on the MIC: it is the smallest concentration in the dilution series that meets the test's criterion for growth inhibition. A low value points to inhibition by little substance. In general, LD50 refers to the dose at which mortality reaches 50%. A high value points to lower toxicity. Usually solubility stands for the dissolved amount per volume that the medium holds. Low values mean little dissolved substance, high ones much dissolved substance.

Structures are written as SMILES. In brackets after ≈: the same amount, converted by molar mass.

One series has as its system Ser. marcescens ES-75. The series is described as follows: Antibacterial activities (MIC), Ser. marcescens ES-75. The note with it: Serratia marcescens, ES75. The format is cell-based. The source says:
(§1) (1) Antibacterial activities (MIC):

In another series the test system is Kleb. pneumoniae EK-6. The series is described as follows: Antibacterial activities (MIC), Kleb. pneumoniae EK-6. The format is cell-based. The note with it: Klebsiella pneumoniae, EK6.
From the text: as §1

A further series relates to Proteus morganii EP-14. The series is described as follows: Antibacterial activities (MIC), Proteus morganii EP-14. It is filed as cell-based. The note with it: Morganella morganii, EP14.
From the text: as §1

For another series, the system named is Staph. aureus 209-P. The series is described as follows: Antibacterial activities (MIC), Staph. aureus 209-P. It is filed as cell-based. The note with it: Staphylococcus aureus.
From the text: as §1

Series [1] in a line: Acute toxicity LD50 (mouse, oral). Conditions: in vivo. An excerpt: The acute toxicity values [LD50 (mouse, oral)] of the following compounds were each 4 g/kg or greater;
The next series has as its system Proteus vulgaris E-18. The series is described as follows: Antibacterial activities (MIC), Proteus vulgaris E-18 (lactamase producing). Conditions: E18; Proteus vulgaris E-18, lactamase producing bacteria. It is filed as cell-based.
From the text: as §1
*Lactamase producing bacteria.

The next series has as its system Escher. coli NIHJ. The series is described as follows: Antibacterial activities (MIC), Escher. coli NIHJ. The note with it: Escherichia coli. It is filed as cell-based.
From the text: as §1

Another series relates to Pseud. aeruginosa EP-01. The series is described as follows: Antibacterial activities (MIC), Pseud. aeruginosa EP-01. The format is cell-based. Conditions: Pseudomonas aeruginosa, EP01.
From the text: as §1

Another series can be described thus: Solubility in water. The format is physicochemical. Conditions: in distilled water at 25° C.
The nature of series [2]: Urinary excretion rate in mice. It is filed as in vivo, ICR male mice. The note with it: mouse, sc, 20 mg/kg subcutaneous, urine up to 6 hours, bioassay. The method, then: ICR male mice (body weight: 20-30 g) were used. Each compound was dissolved in an M/15 phosphate buffer (pH 7.0) and administered in an amount of 20 mg/kg by the subcutaneous route. Urine was collected up to 6 hours after the administration. The concentration of the compound was determined by the bioassey technique (the agar-well method) using Pseudomonas aeruginosa as a test microorganism. On the basis of the thus-determined concentration, its excreted amount was obtained. The urinary excretion rate was then calculated from the excreted amount based on the amount administered.

Turning to `CO[C@@]1(NC(=O)[C@H](NC(=O)c2c(C)oc3cc(O)c(O)cc3c2=O)c2ccc(OCC(=O)O)cc2)C(=O)N2C(C(=O)[O-])=C(C[n+]3ccc(C(N)=O)cc3)CS[C@@H]21` [Example 50, Sodium 7β-[D-2-(4-carboxymethoxyphenyl)-2-(6,7-dihydroxy-2-methyl-4-oxo-4H-1-benzopyran-3-carboxamido)acetamido]-7α-methoxy-3-(4-carbamoylpyridinium)methyl-3-cephem-4-carboxylate], the MIC was determined as 0.8 µg/mL against Ser. marcescens ES-75; 0.1 µg/mL against Kleb. pneumoniae EK-6; 12.5 µg/mL against Proteus morganii EP-14; 100 µg/mL against Staph. aureus 209-P; 3.13 µg/mL in the series with Proteus vulgaris E-18; 1.56 µg/mL against Escher. coli NIHJ. Also, the MIC against Pseud. aeruginosa EP-01 was found to be 0.4 µg/mL. In series [1], this compound showed an LD50 not below 4000 mg/kg. In the series “Solubility in water”, this compound had a solubility not below 300 mg/mL.
As to `CO[C@@]1(NC(=O)[C@H](NC(=O)c2coc3cc(O)c(O)cc3c2=O)c2ccc(OCC(=O)O)cc2)C(=O)N2C(C(=O)O)=C(CSc3nnnn3CC(=O)O)CS[C@@H]21` [Example 30, Trisodium 7β-[D-2-(4-carboxymethoxyphenyl)-2-(6,7-dihydroxy-4-oxo-4H-1-benzopyran-3-carboxamido)-acetamido]-7α-methoxy-3-(1-carboxymethyl-5-tetrazolyl)-thiomethyl-3-cephem-4-carboxylate], the MIC in the series with Ser. marcescens ES-75 is 0.2 µg/mL; in the series with Kleb. pneumoniae EK-6 it was not above 0.05 µg/mL; against Proteus morganii EP-14 it was 6.25 µg/mL; against Staph. aureus 209-P, 100 µg/mL; with Proteus vulgaris E-18, 0.8 µg/mL; in the series with Escher. coli NIHJ, 0.8 µg/mL. Also, the MIC against Pseud. aeruginosa EP-01 is 0.4 µg/mL. For the same compound, in series [1], the LD50 was not below 4000 mg/kg.
For the compound `CO[C@@]1(NC(=O)[C@H](NC(=O)c2c(C)oc3cc(O)c(O)cc3c2=O)c2ccc(OCC(=O)O)cc2)C(=O)N2C(C(=O)O)=C(CSc3nnnn3CC(=O)O)CS[C@@H]21` [Example 25], the MIC with Ser. marcescens ES-75 is 0.1 µg/mL (≈ 0.121 µM); with Kleb. pneumoniae EK-6, not above 0.05 µg/mL; against Proteus morganii EP-14, 3.13 µg/mL (≈ 3.78 µM); with Staph. aureus 209-P, 100 µg/mL (≈ 121 µM); against Proteus vulgaris E-18 it was 0.4 µg/mL (≈ 0.483 µM); against Escher. coli NIHJ, 0.4 µg/mL (≈ 0.483 µM). Moreover, the minimal inhibitory concentration (MIC) against Pseud. aeruginosa EP-01 stood at 0.4 µg/mL (≈ 0.483 µM). In [2], this compound came in with a dose excreted at 6 h of 20%. Besides, the LD50 in series [1] was not below 4000 mg/kg. In “Solubility in water”, this compound had a solubility not below 300 mg/mL.
For the compound `CO[C@@]1(NC(=O)[C@H](NC(=O)c2coc3cc(O)c(O)cc3c2=O)c2ccc(OCC(=O)O)cc2)C(=O)N2C(C(=O)[O-])=C(C[n+]3ccc(C(N)=O)cc3)CS[C@@H]21` [Example 51, Sodium 7β-[D-2-(4-carboxymethoxyphenyl)-2-(6,7-dihydroxy-4-oxo-4H-1-benzopyran-3-carboxamido)-acetamido]-7α-methoxy-3-(4-carbamoylpyridinium)-methyl-3-cephem-4-carboxylate], the MIC is 0.8 µg/mL in the series on Ser. marcescens ES-75; not above 0.05 µg/mL in the series on Kleb. pneumoniae EK-6; 25 µg/mL against Proteus morganii EP-14; 50 µg/mL against Staph. aureus 209-P; 3.13 µg/mL against Proteus vulgaris E-18; 1.56 µg/mL against Escher. coli NIHJ. In the series with Pseud. aeruginosa EP-01, this compound returned an MIC of 0.4 µg/mL. In addition, in series [2], the dose excreted at 6 h was 16%. In the series “Solubility in water”, this compound returned a solubility not below 300 mg/mL.
For the compound `CO[C@@]1(NC(=O)[C@H](NC(=O)c2c(C)oc3cc(O)c(O)cc3c2=O)c2ccc(OCC(=O)O)cc2)C(=O)N2C(C(=O)[O-])=C(C[n+]3ccccc3)CS[C@@H]21` [Example 48, Sodium 7β-[D-2-(4-carboxymethoxyphenyl)-2-(6,7-dihydroxy-2-methyl-4-oxo-4H-1-benzopyran-3-carboxamido)acetamido]-7α-methoxy-3-pyridiniummethyl-3-cephem-4-carboxylate], the MIC against Ser. marcescens ES-75 is 0.1 µg/mL; in the series with Kleb. pneumoniae EK-6, not above 0.05 µg/mL; with Proteus morganii EP-14, 6.25 µg/mL; against Staph. aureus 209-P, 100 µg/mL; with Proteus vulgaris E-18, 1.56 µg/mL; in the series on Escher. coli NIHJ, 0.2 µg/mL. The same compound showed an MIC in the series on Pseud. aeruginosa EP-01 of 0.2 µg/mL. Further, in series [2], the dose excreted at 6 h came out at 45%. In addition, the LD50 in series [1] is not below 4000 mg/kg. In “Solubility in water”, this compound displayed a solubility not below 300 mg/mL.
